Data: patent US11384078B2, “5,6-fused-bicyclic compounds and compositions for the treatment of parasitic diseases” (NOVARTIS AG, priority 2017, dated 2022)
Where two headings read alike, the source gives them in different places.

Tests used:
Format in all cases: cell-based
[1] = tested on: L. donovani HU3 strain in mouse peritoneal macrophages; assay: Assay for inhibition of parasitemia of Leishmania donovani in mouse macrophages (SYBR Green nuclei count, high-content imaging); details: Leishmania donovani, Peritoneal macrophage, L. donovani in mouse peritoneal macrophages; read-out: L. donovani in Mouse Macrophages EC50
Description: Assay for Inhibition of Parasitemia of Leishmania donovani in Mouse Macrophages
The assay measures the increase in the parasite number in the assayed plate well using a DNA intercalating dye, SYBR Green I® dye (INVITROGEN) to stain Leishmania cell nuclei. L. donovani HU3 strain is propagated by infecting BALB/c mice through tail vein injection with 10^7 Leishmania parasites. Infected mice are allowed to develop infection during 9-11 weeks post-infection. During this time, the parasites accumulate in the infected mouse spleens to large numbers, and the infected mice serve as the source of parasites for the in vitro measurement of compound efficacies. To assay a compound for anti-leishmanial activity, peritoneal macrophages isolated from non-infected BALB/c mice are seeded into 384-well plates at density 2×10^4 macrophages per well in […] of medium (RPM11640, 10% fetal serum albumin, 10 mM HEPES, 1 mM sodium pyruvate, 1% Pen/Strep). Subsequently, the seeded plates are placed into an incubator set to maintain 37° C. temperature and atmosphere with 5% CO2.
The next day, Leishmania parasites are isolated from the spleens of mice infected for 9-11 weeks and 4×10^5 isolated parasites in […] of the above media are added to each plate well. Plates are then returned into incubators and infection is allowed to proceed for 24 hours. After the infection of macrophages is completed, […] of compounds of the invention in the above medium, which also contains 5% DMSO, are added to plate wells containing infected macrophages. At the same time control compounds (miltefosine and amphotericin B) and DMSO are added to plates to serve as the positive and negative controls, respectively. After the compound addition, the plates are returned into incubator and cells infected with parasites are cultured for 5 days. At the end of cultivation, […] of 8% paraformaldehyde is added to plate wells and incubated for 15 min at room temperature. Following the incubation, the paraformaldehyde from plate wells is aspirated, and […] of PBS containing 0.2% Triton X-100 is added to wells. After 15 min incubation, the solution is aspirated from wells again, and replaced with Sybr® Green Dye solution in PBS (1:125,000 dilution). Infected cells are imaged with Evotec Opera high-content microscope, and the number of parasites in well is determined by counting parasite nuclei visualized by staining with Sybr® Green dye.

[2] = tested on: Trypanosoma brucei brucei (Lister 427) strain; assay: Assay for growth inhibition against Trypanosoma brucei brucei (Cell TiterGlo ATP luminescence); details: T. brucei brucei (Lister 427), read-out: T. Brucei (HAT) EC50
In short: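 Growth read-out is cellular ATP by CellTiter-Glo luminescence, measured 30 min after reagent addition, following 2-day incubation at 37 °C in CO2. Parasites (10,000/mL, HMI-9 plus 10% FBS and 10% serum plus) faced 10 threefold dilutions in duplicate; IC50 taken as 50% growth inhibition versus untreated.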

[3] = tested on: Leishmania donovani axenic amastigote; assay: In vitro assay for growth inhibition of Leishmania donovani axenic amastigote (Cell TiterGlo luminescence); details: Leishmania donovani, L. donovani axenic amastigotes in vitro; read-out: L. donovani amastigotes EC50
In short: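 Compound-treated wells received 9600 axenic amastigotes in RPMI 1640-based medium at pH 5.5 (37 °C, 5% CO2). Growth measured as ATP luminescence (CellTiter-Glo) after 2-day incubation; DMSO and reference compounds served as controls.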

[4] = tested on: Trypanosoma cruzi amastigotes cultured in 3T3 fibroblast cells; assay: Assay for growth inhibition of kinetoplastid parasite Trypanosoma cruzi (beta-galactosidase Tulahuen strain, CPRG readout); details: Trypanosoma cruzi, Fibroblast, T. cruzi amastigotes in 3T3 fibroblast cells; read-out: Buckner infectious T. cruzi EC50
In short: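 3T3 fibroblasts (1,000 cells/well) plated overnight, treated with compound in DMSO, then infected with 10,000 Lac-Z-expressing Tulahuen trypomastigotes. After 6 days, 0.6 mM CPRG with 0.6% NP-40 added for 2 h at room temperature; absorbance gives relative intracellular amastigote numbers. Benznidazole and nifurtimox serve as positive controls.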

Row | Structure (SMILES) | EC50 [1] [nM] | EC50 ([2]; Trypanosoma brucei) [nM] | EC50 [3] [nM] | EC50 [4] [nM] | EC50 [2] [nM]
1 | O=C(Nc1ccc(F)c(-n2cc3cc(N4CC(C(F)(F)F)C4)cnc3n2)c1)N1CCC1 [Compound 274] | 3 | 1 | 2 | 1 | –
2 | O=C(Nc1ccc(F)c(-n2cc3cc(-c4ncccc4F)cnc3n2)c1)N1CC[C@@H](F)C1 [Compound 317, (3R)-3-fluoro-N-{4-fluoro-3-[5-(3-fluoropyridin-2-yl)-2H-pyrazolo[3,4-b]pyridin-2-yl]phenyl}pyrrolidine-1-carboxamide] | 2 | 5 | 2 | 1 | –
3 | O=C(Nc1ccc(F)c(-n2cc3cc(N4CC(F)C4)cnc3n2)c1)N1CC[C@@H](F)C1 [Compound 302, (3R)-3-fluoro-N-{4-fluoro-3-[5-(3-fluoroazetidin-1-yl)-2H-pyrazolo[3,4-b]pyridin-2-yl]phenyl}pyrrolidine-1-carboxamide] | 15 | 5 | 118 | 2 | –
4 | [2H]C([2H])([2H])N(c1cnc2nn(-c3cc(NC(=O)N4CC(F)(F)C4)ccc3F)cc2c1)C([2H])([2H])[2H] [Compound 307, N-(3-{5-[bis(^2H3)methylamino]-2H-pyrazolo[3,4-b]pyridin-2-yl}-4-fluorophenyl)-3,3-difluoroazetidine-1-carboxamide] | 12 | 5 | 281 | 16 | –
5 | O=C(Nc1ccnc(-n2cc3cc(-c4ccccn4)cnc3n2)c1)N1CC(F)C1 [Compound 342, 3-fluoro-N-{2-[5-(pyridin-2-yl)-2H-pyrazolo[3,4-b]pyridin-2-yl]pyridin-4-yl}azetidine-1-carboxamide] | 24 | 10 | 7 | 17 | –
6 | Cc1cccnc1-c1cnc2nn(-c3cc(NC(=O)C4=CC(C)(C)C4)ccc3F)cc2c1 [Compound 350, N-{4-fluoro-3-[5-(3-methylpyridin-2-yl)-2H-pyrazolo[3,4-b]pyridin-2-yl]phenyl}-3,3-dimethylcyclobut-1-ene-1-carboxamide] | 58 | 28 | 16 | 16 | –
7 | O=C(Nc1ccc(F)c(-n2cc3cc(C4CCN(Cc5ccc(F)cc5)CC4)cnc3n2)c1)N1CC(F)C1 [Compound 305, 3-fluoro-N-[4-fluoro-3-(5-{1-[(4-fluorophenyl)methyl]piperidin-4-yl]-2H-pyrazolo[3,4-b]pyridin-2-yl)phenyl]azetidine-1-carboxamide] | 3 | 5 | 110 | 1 | –
8 | O=C(Nc1ccc(F)c(-n2cc3cc(C4CC4)cnc3n2)c1)N1CCC1 [Compound 91, N-(3-{5-cyclopropyl-2H-pyrazolo[3,4-b]pyridin-2-yl}-4-fluorophenyl)azetidine-1-carboxamide] | 8.6 | < 23 | 8.7 | 4.1 | –
9 | O=C(Nc1ccc(F)c(-n2cc3cc(N4CC5(CCOC5)C4)cnc3n2)c1)N1CC(F)C1 [Compound 202, 3-fluoro-N-[4-fluoro-3-(5-{6-oxa-2-azaspiro[3.4]octan-2-yl}-2H-pyrazolo[3,4-b]pyridin-2-yl)phenyl]azetidine-1-carboxamide] | 10 | 5 | 463 | 25 | –
10 | CC(C)(C)c1cnc2nn(-c3cc(NC(=O)N4CC(F)C4)ccc3F)cc2c1 [Compound 22, N-(3-{5-tert-butyl-2H-pyrazolo[3,4-b]pyridin-2-yl}-4-fluorophenyl)-3-fluoroazetidine-1-carboxamide] | 21000 | < 23 | 28 | 7.2 | –
11 | CC(C)(C)Cc1cnc2nn(-c3cc(NC(=O)N4CCC4)ccc3F)cc2c1 [Compound 94, N-{3-[5-(2,2-dimethylpropyl)-2H-pyrazolo[3,4-b]pyridin-2-yl]-4-fluorophenyl}azetidine-1-carboxamide] | 8.1 | < 23 | 12 | 1.8 | –
12 | CNc1cnc2nn(-c3cc(NC(=O)c4oc(C)nc4C)ccc3F)cc2c1 [Compound 153, N-{4-fluoro-3-[5-(methylamino)-2H-pyrazolo[3,4-b]pyridin-2-yl]phenyl}-2,4-dimethyl-1,3-oxazole-5-carboxamide] | 27000 | 500 | 210 | 150 | –
13 | CC(C)c1cnc2nn(-c3cc(NC(=O)C4CC4(F)F)ccc3F)cc2c1 (centres unmarked) [Compound 208, 2,2-difluoro-N-{4-fluoro-3-[5-(propan-2-yl)-2H-pyrazolo[3,4-b]pyridin-2-yl]phenyl}cyclopropane-1-carboxamide] | 1920 | 375 | 921 | 358 | –
14 | Cc1nc(C)c(C(=O)Nc2ccc(F)c(-n3cc4cc(CC(F)(F)F)cnc4n3)c2)o1 [Compound 175, N-{4-fluoro-3-[5-(2,2,2-trifluoroethyl)-2H-pyrazolo[3,4-b]pyridin-2-yl]phenyl}-2,4-dimethyl-1,3-oxazole-5-carboxamide] | 8.1 | < 23 | 24 | 4.9 | –
15 | COC1CN(c2cnc3nn(-c4cc(NC(=O)N5CC(F)C5)ccc4F)cc3c2)C1 [Compound 205, 3-fluoro-N-{4-fluoro-3-[5-(3-methoxyazetidin-1-yl)-2H-pyrazolo[3,4-b]pyridin-2-yl]phenyl}azetidine-1-carboxamide] | 11 | 5 | 197 | 15 | –
16 | O=C(Nc1ccc(F)c(-n2cc3cc(N4CC(F)C4)cnc3n2)c1)C1CC1 [Compound 327, N-{4-fluoro-3-[5-(3-fluoroazetidin-1-yl)-2H-pyrazolo[3,4-b]pyridin-2-yl]phenyl}cyclopropanecarboxamide] | 1200 | 232 | 351 | 149 | –
17 | CCC(C)(C)c1cnc2nn(-c3cc(NC(=O)c4oc(C)nc4C)ccc3F)cc2c1 [Compound 104, N-{4-fluoro-3-[5-(2-methylbutan-2-yl)-2H-pyrazolo[3,4-b]pyridin-2-yl]phenyl}-2,4-dimethyl-1,3-oxazole-5-carboxamide] | 2100 | 4200 | 3100 | 1200 | –
18 | CCCC(C)c1cnc2nn(-c3cc(NC(=O)N4CC[C@@H](F)C4)ccc3F)cc2c1 (stereo partly drawn) [Compound 48, (3R)-3-fluoro-N-{4-fluoro-3-[5-(pentan-2-yl)-2H-pyrazolo[3,4-b]pyridin-2-yl]phenyl}pyrrolidine-1-carboxamide] | 330 | 50 | 350 | 290 | –
19 | Cc1nc(C)c(C(=O)Nc2ccc(F)c(-n3cc4cc(Br)cnc4n3)c2)o1 [Compound 128, N-(3-(5-bromo-2H-pyrazolo[3,4-b]pyridin-2-yl)-4-fluorophenyl)-2,4-dimethyloxazole-5-carboxamide] | 190 | 180 | 380 | 140 | –
20 | C[C@@H]1CN(c2cnc3nn(-c4cc(NC(=O)N5CC(F)C5)ccc4F)cc3c2)C[C@H](C)O1 [Compound 230, N-(3-{5-[(2R,6S)-2,6-dimethylmorpholin-4-yl]-2H-pyrazolo[3,4-b]pyridin-2-yl]-4-fluorophenyl)-3-fluoroazetidine-1-carboxamide] | 22 | – | 37 | 47 | 5
